In paper PMC4603705, “A bioinspired peptide scaffold with high antibiotic activity and low in vivo toxicity” (Scientific Reports, 2015):
≈ marks a conversion by molar mass, not a printed value. Bridge positions count the residues as written; N and C are the ends. Square brackets hold non-standard residues; d marks the D form. Peptide text beside a SMILES is read from it. * marks the point of attachment. Nonanoyl = CCCCCCCCC(=O)*; Dab = NCC[C@H](N)C(=O)O

Legend:
[1] = test system: S. aureus ATTC 6538; test: microbe, parasite or virus in culture; assay type: cell-based, Staphylococcus aureus; conditions: ATTC 6538
Protocol: (§1) MICs were measured after 18–20 h of incubation in sterile 96-well plates (Corning Costar 3598 microtiter plates) in Mueller Hinton Broth (MHB) culture medium, (Difco, USA), according to well known in vitro protocols. Bacterial strains in Table 1 were: P. aeruginosa ATTC 9027, E. coli ATTC 8739, S. aureus ATTC 6538, and E. faecalis ATTC 29212. MICs shown in table 4 were performed by Mary Conrad at Cubist Pharmaceuticals (Lexington, MA) in non-binding surface plates.

[2] = test system: S. aureus; test: microbe, parasite or virus in culture; assay type: cell-based, Staphylococcus aureus
Protocol: as §1

[3] = test system: E. faecalis ATTC 29212; test: microbe, parasite or virus in culture; assay type: cell-based, Enterococcus faecalis; conditions: ATTC 29212
Protocol: Lipopeptide 39 was chosen for this, as it is known that long fatty acids tend to favor activity against Gram-positive bacteria in polymyxin analogs. […] In summary, new broad-spectrum antimicrobial lipopeptides were achieved.
as §1

[4] = administered in vivo; no reference given; cited from earlier work
[5] = test system: P. aeruginosa ATTC 9027; assay type: cell-based, Pseudomonas aeruginosa; conditions: ATTC 9027
Protocol: as §1

[6] = test system: E. coli ATTC 8739; assay type: cell-based, Escherichia coli; conditions: ATTC 8739
Protocol: as §1

[7] = test system: human dermic fibroblasts (hDF); test: In vitro cytotoxicity (WST-1 cell viability), hDF; assay type: cell-based; conditions: for IC50 hDF Exp1: Supplementary Table S2, experiment 1; for IC50 hDF Exp2: Supplementary Table S2, experiment 2; for IC50 hDF: cytotoxicity, WST-1
Protocol: (§2) Cell viability assays were performed using the tetrazolium dye WST1 (similar to MTT) on human dermal fibroblasts (3T3 hDF), MDCK (renal model, Madin-Darby canine kidney cells) and PC12 (NGF treated; neuronal model) cell lines and followed standard protocols. Briefly, cells were seeded into 96-well plates, after incubation for 24 h, the medium was replaced with fresh cell culture medium containing the products (range 0-1.2 mg/mL). Negative and positive controls consisted of plates in the absence of the test compound and plates with sodium dodecyl sulfate (0.02% w/v), respectively. Cell viability was assayed with the tetrazolium salt (4-[3-(4- iodophenyl)-2-(4-nitrophenyl)-2H-5-tetrazolio]-1,3-benzene disulfonate) (WST-1). The relative WST-1 absorbance was recorded at 450 nm.
(§3) The products at concentrations ranging from 0 to 1.2 mg/mL were tested (triplicate) and in two independent experiments. The statistical analysis of the data was performed by using non-linear regression (curve-fit) and the model used agreed with the four parameter logistic model (4PL), also called the Hill-Slope model (sigmoid model), with the following equation: […]
(§4) where y is the percent activity and x is the corresponding concentration. The quantities determined where the point estimate IC50 (Half maximal (50%) inhibitory concentration (IC) of a substance, see Table II), the corresponding 95% confidence interval and R^2 (measures the goodness of fit) are shown in the Supplementary Table S2.

[8] = test system: Madine-Darby canine kidney cells (MDCK, renal model); test: In vitro cytotoxicity (WST-1 cell viability), MDCK; assay type: cell-based; conditions: for IC50 MDCK Exp1: Supplementary Table S2, experiment 1; for IC50 MDCK Exp2: Supplementary Table S2, experiment 2; for IC50 MDCK: cytotoxicity, WST-1
Protocol: as §2, §3, §4

[9] = test system: PC12 (treated with NGF, neuronal model); test: In vitro cytotoxicity (WST-1 cell viability), PC12; assay type: cell-based; conditions: WST-1, NGF treated
Protocol: as §2, §3, §4

Compound | MIC P. aeruginosa [5] | MIC E. coli [6] | MIC S. aureus [1] | MIC S. aureus DR, MR SAU.1616 [2] | MIC S. aureus DR, MS SAU.278 [2] | MIC S. aureus MR ATTC 43300 [2] | MIC S. aureus MR SAU.1118 [2] | MIC S. aureus MS ATTC 29213 [2] | MIC E. faecalis Wild type ATTC 29212 [3] | half-life [4] | IC50 hDF Exp1 [7] | IC50 hDF Exp2 [7] | IC50 hDF [7] | IC50 MDCK Exp1 [8] | IC50 MDCK Exp2 [8] | IC50 MDCK [8] | IC50 PC12 [9]
CCCCCCCCCC(=O)N[C@@H](Cc1c[nH]c2ccccc12)C(=O)N[C@H](CC(N)=O)C(=O)N[C@@H](CC(=O)O)C(=O)N[C@@H]1C(=O)NCC(=O)N[C@@H](CCCN)C(=O)N[C@@H](CC(=O)O)C(=O)N[C@H](C)C(=O)N[C@@H](CC(=O)O)C(=O)NCC(=O)N[C@H](CO)C(=O)N[C@@H]([C@H](C)CC(=O)O)C(=O)N[C@@H](CC(=O)c2ccccc2N)C(=O)O[C@@H]1C [Daptomycin] |  |  | 1 µg/mL (≈ 0.617 µM) | 16 µg/mL (≈ 9.87 µM) | 8 µg/mL (≈ 4.94 µM) | 0.5 µg/mL (≈ 0.309 µM) | 0.5 µg/mL (≈ 0.309 µM) | 0.5 µg/mL (≈ 0.309 µM) | 2 to 4 µg/mL |  |  |  |  |  |  |  | 
Somatostatin |  |  |  |  |  |  |  |  |  | 2 to 3 min |  |  |  |  |  |  | 
CCCCCCCCC(=O)N[C@@H](CCCNC(=N)N)C(=O)N[C@H](C(=O)N[C@@H](CCN)C(=O)N[C@H]1CSSC[C@@H](C(N)=O)NC(=O)[C@H](CCN)NC(=O)[C@H](CCCNC(=N)N)NC(=O)[C@H](CC(C)C)NC(=O)[C@@H](Cc2ccccc2)NC(=O)[C@H](CCN)NC1=O)[C@@H](C)O [Analog 5, nonanoyl-Arg-Thr-Dab-Cys-Dab-Phe-Leu-Arg-Dab-Cys] (Nonanoyl-RT[Dab]C[Dab][dF]LR[Dab]C-NH2; disulfide 4-10) | 16 µg/mL (≈ 12 µM) | 8 µg/mL (≈ 5.99 µM) |  |  |  |  |  |  |  |  | 555 µg/mL (≈ 416 µM) | 513 µg/mL (≈ 384 µM) | 534 µg/mL (≈ 400 µM) | 541 µg/mL (≈ 405 µM) | 554 µg/mL (≈ 415 µM) | 548 µg/mL (≈ 410 µM) | 629 µg/mL (≈ 471 µM)

The next lines start with results.

MIC P. aeruginosa [5] | MIC E. coli [6] | Compound | MIC S. aureus [1] | MIC S. aureus DR, MR SAU.1616 [2] | MIC S. aureus DR, MS SAU.278 [2] | MIC S. aureus MR ATTC 43300 [2] | MIC S. aureus MR SAU.1118 [2] | MIC S. aureus MS ATTC 29213 [2] | MIC E. faecalis Wild type ATTC 29212 [3] | half-life [4] | IC50 hDF Exp1 [7] | IC50 hDF Exp2 [7] | IC50 hDF [7] | IC50 MDCK Exp1 [8] | IC50 MDCK Exp2 [8] | IC50 MDCK [8] | IC50 PC12 [9]
8 µg/mL (≈ 5.75 µM) | 4 µg/mL (≈ 2.87 µM) | CCCCCCCCC(=O)N[C@@H](CCCNC(=N)N)C(=O)N[C@H](C(=O)N[C@@H](CCCNC(=N)N)C(=O)N[C@H]1CSSC[C@@H](C(N)=O)NC(=O)[C@H](CCN)NC(=O)[C@H](CCCNC(=N)N)NC(=O)[C@H](CC(C)C)NC(=O)[C@@H](Cc2ccccc2)NC(=O)[C@H](CCN)NC1=O)[C@@H](C)O [Analog 8, nonanoyl-Arg-Thr-Arg-Cys-Dab-Phe-Leu-Arg-Dab-Cys] (Nonanoyl-RTRC[Dab][dF]LR[Dab]C-NH2; disulfide 4-10) |  |  |  |  |  |  |  |  | 421 µg/mL (≈ 302 µM) | 502 µg/mL (≈ 361 µM) | 461 µg/mL (≈ 331 µM) | 417 µg/mL (≈ 299 µM) | 528 µg/mL (≈ 379 µM) | 472 µg/mL (≈ 339 µM) | 595 µg/mL (≈ 428 µM)
16 to 32 µg/mL | 8 to 16 µg/mL | CCCCCCCCC(=O)N[C@@H](CCCNC(=N)N)C(=O)N[C@H](C(=O)N[C@@H](CCCNC(=N)N)C(=O)N[C@H]1CSSC[C@@H](C(N)=O)NC(=O)[C@H](CCCNC(=N)N)NC(=O)[C@H](CCCNC(=N)N)NC(=O)[C@H](CC(C)C)NC(=O)[C@@H](Cc2ccccc2)NC(=O)[C@H](CCCNC(=N)N)NC1=O)[C@@H](C)O [Analog 12] (Nonanoyl-RTRCR[dF]LRRC-NH2; disulfide 4-10) | 8 µg/mL (≈ 5.32 µM) |  |  |  |  |  |  |  | 147 µg/mL (≈ 97.7 µM) | 181 µg/mL (≈ 120 µM) | 164 µg/mL (≈ 109 µM) | 233 µg/mL (≈ 155 µM) | 147 µg/mL (≈ 97.7 µM) | 190 µg/mL (≈ 126 µM) | 225 µg/mL (≈ 150 µM)
